Experimental data taken from US20170143674A1, “Use of Glutaryl Histamine for the Treatment of Respiratory Tract Diseases” (LTD "VALENTA-INTELLEKT", priority 2011, published 2017).
Marks after values point to notes of the source that are not given here.

Tests used:
[1] = system: acute respiratory distress syndrome (ARDS); test: ARDS model, single intravenous LPS 7.5 mg/kg; format: in vivo, rat; conditions: Dexamethasone 5 mg/kg
Experimental: (§1) Since an intravenous administration of lipopolysaccharide (LPS) to animals is one of the most acceptable models for studying the pathogenesis, pathomorphological changes and consequences of acute respiratory distress syndrome, this model was used in this example. Tested medicament glutaryl histamine was administered for 9 days after the first administration of LPS, i.e. glutaryl histamine was administered for 12 days in total (3 days before the induction of ARDS and 9 days during and after the induction). The exception was dexamethasone since, according to the literature data and the information leaflet, long-time administration of steroidal anti-inflammatory agents can cause severe side effects. For this reason, dexamethasone was administered according to the following schedule: 49, 24 and 1 hour before the induction of ARDS in a dose of 5 mg/kg, for 3 days after the first injection of LPS in the same dose; the medicament was withdrawn by a gradual dose reduction for 3 days. Thus, dexamethasone was administered 9 times.
The mortality rate among the animals administered LPS in an intravenous dose of 7.5 mg/kg was 70% for 8 days. The most of them (60%) died on the first day, in particular, from 4 to 12-16 hours after the injection of LPS. The mortality rate among the animals administered glutaryl histamine was different from the rate in animals treated with dexamethasone; however, most of them also died on the first day, about in the same time period (Table 11).

[2] = system: acute respiratory distress syndrome (ARDS); test: ARDS model, multiple-dose intravenous LPS (LD30); format: in vivo, rat
Experimental: as §1
At this step, animals were administered LPS at more lower dose, but for longer time period. They were received 2 mg/kg on days 1 and 2, and 3 and 4 mg/kg on days 3 and 4, respectively. The maximum mortality rate, similarly to the single-dose administration of LD70, was on the first day. On eighth day, mortality reached 33%.
The second step of the experiment comprises the evaluation of both the mortality rate of the animals with calculation of the protective index and narrower indexes used for determination of a specific protection provided by glutaryl histamine in ARDS. As was disclosed above, a lower dose of LPS (LD30) was used at the second stage. In addition, LPS was administered every day for 4 days. This method of administration was aimed at achieving the maximum disorder exactly in the lung for subsequent evaluation of possible protective action of glutaryl histamine.

[3] = system: acute rhinosinusitis induced by intranasal administration of formalin; format: in vivo, rat
Experimental: Activity of glutaryl histamine was studied in an experimental model of acute rhinosinusitis (ARS).
Administration of 20 μl of 7.5% formalin to the rat nasal passages leads to the development of a clinical picture similar to the symptoms of acute rhinosinusitis in a human.
The tested medicament and reference medicaments were administered for 7 days after administration of 7.5% formalin. Normal saline solution was used as placebo. The animals were subjected to euthanasia on day 8 after induction of experimental acute rhinosinusitis by method of air embolism. During necropsy, nasal passages of all animals were sampled. The obtained material was placed into 10% neutral-buffered formalin for further histological analysis.
The mucous and submucous membranes of both nasal passages (respiratory and olfactory regions) of the experimental animals were subjected to a morphological analysis of the specific activity of glutaryl histamine.
After the clinical phase of the experiment, the material derived from the animals was subjected to the standard treatment to prepare histological paraffin sections with a thickness of 3 to 5 μm. The sections were stained with hematoxylin and eosin for a microscopic study. Comparison and histological analysis of changes were performed versus the group of intact rats.
The main pathological processes inherent in experimental acute rhinosinusitis, such as vascular congestion in mucous membrane, hyperplasia and necrosis of the epithelium, the number of caliciform cells within 1 mm of the mucous membrane in the nasal septum, were evaluated by a semi-quantitative method to evaluate the degree of pathophysiological changes in histological, histochemical and morphological studies.
The microscopic analysis of exudative disorder developed in rats with acute rhinitis was aimed at measuring the number of caliciform cells comprising acidic mucus (Table 3).

LPS-induced tonsillitis = LPS-induced tonsillitis model (E. coli LPS into cervical lymph node); format: in vivo
Experimental: This example is aimed at evaluating the activity of glutaryl histamine on experimental model of tonsillitis. LPS-induced tonsillitis is one of the most adequate models for the study of the pathogenesis, pathomorphological changes and action of pharmacological medicaments on the course of this disease.
Tonsillitis was induced under anesthesia by administration of a solution of E. coli lipopolysaccharide (LPS) (Sigma) in normal physiological solution in a dose of 20 μg/kg, by 10 μl to the right upper lymph node (Inn. Cervicales superficiales). After administration, the lymph nodes were put under superficial neck muscles and then the skin was stitched. The wound was treated with streptocide. The animal was placed into a post-operation cage.
The tested medicament was administered once daily in a given dose strictly at the stated time for three days before the induction of tonsillitis and 10 days after. Normal saline solution was used as placebo.
Immediately after euthanasia, the animals were subjected to necropsy, the affected and intact lymph nodes were removed and weighed.
The lymph nodes derived from the half of animals from each group were being frozen after removal in a refrigerating chamber at −25° C. for 72 hours. Then the lymph nodes were lyophilized.
In a half of animals from each group (7), the affected lymph nodes were subjected to histological analysis. After euthanasia, intact and affected lymph nodes were removed from each animal. […] Sections with a thickness of 4 to 6 μm were prepared from the paraffin blocks, stained with hematoxylin and eosin to reveal typical pathological processes and study required parameters using light-optical microscope Leica DM LS (magnification 200× and 400×).
Weights of intact and affected lymph nodes were compared and the nodes also were lyophilized to evaluate an effect of the medicaments on the swelling degree and adequacy of the model of tonsillitis.
The protein-synthetic function of the liver and a systemic effect of the medicaments on organism were evaluated in total protein (TP) analysis.

C[C@@H]1C[C@H]2[C@@H]3CCC4=CC(=O)C=C[C@]4(C)[C@@]3(F)[C@@H](O)C[C@]2(C)[C@@]1(O)C(=O)CO [Dexamethasone, dexamethasone, reference compound]
IP (%) (protective index) [1]: 28.6%
S (%) (survival rate) [1]: 50%
Me (%) (mortality rate) ([1]; 8 days): 50%
Died ([1]; total number 10): 5
IP (%) (protective index) ([2]; Dexamethasone 5 mg/kg): 62.5%
M (%) (mortality rate) ([2]; Dexamethasone 5 mg/kg): 12.5%
S (%) (survival rate) ([2]; Dexamethasone 5 mg/kg): 87.5%
Died ([2]; Dexamethasone 5 mg/kg, total number 24): 3
mortality rate for the first three days ([2]; dexamethasone (5 mg/kg), first three days): 0%
Mucopurulent catarrh (number of rats) ([3]; Dexamethasone 5 mg/kg, n = 10): 0
Mucous catarrh (number of rats) ([3]; Dexamethasone 5 mg/kg, n = 10): 1
Without changes (number of rats, mucous membrane in the nasal passages, macroscopic) ([3]; Dexamethasone 5 mg/kg, n = 10): 9
The number of caliciform cells within 1 mm of the mucosal membrane of the nasal septum ([3]; Dexamethasone (5 mg/kg), M ± m): 15.6 ± 0.6
Mortality rate (%) (LPS-induced tonsillitis; Dexamethasone 5 mg/kg): 64%
The number of died animals/initial number of animals in a group (LPS-induced tonsillitis; Dexamethasone 5 mg/kg): 9/14
Area of germinal centers of lymphoid follicles in affected lymph nodes (LPS-induced tonsillitis; Dexamethasone (5 mg/kg), M ± m): 0.016 ± 0.004* ** mm^2
Weight difference between affected and intact lymph nodes (LPS-induced tonsillitis; Dexamethasone (5 mg/kg), M ± m): 15.6 ± 1.8 mg
